{"source": "patent US10329305B2", "about": "“Amorphous solid form of a BET protein inhibitor” (Incyte Corporation, priority 2015, dated 2019)", "format_in_all_cases": "physicochemical", "key": {"[1]": {"assay": "Stability of amorphous Compound 1-(S) under elevated temperature and humidity (Karl-Fischer water content, HPLC/UV purity, XRPD)", "details": "for Solid Form (XRPD) / Purity 220 nm / Purity 254 nm / Water content: open vial; for Purity 220 nm / Purity 254 nm: HPLC/UV; for Water content: Karl-Fischer", "experimental": "Table 1 indicates the conditions/time to which the amorphous form was subjected and provides the measured water content (Karl-Fischer analysis) and purity (by HPLC/UV). The HPLC/UV instrument was Agilent HPLC 1100 with an Agilent Zorbax SB-C18, 3.5 μm, 4.6×150 mm column. The HPLC conditions were as follows: column temperature: 40° C.; mobile phase A (MPA): 0.05% (v/v) trifluoroacetic acid (TFA) in water; mobile phase B (MPB): 0.05% (v/v) TFA in acetonitrile; and flow rate: 1 mL/min.\nThe gradient conditions were as follows: […]"}, "[2]": {"assay": "Formulation of amorphous Compound 1-(S): solubility in vehicles", "details": "for solubility: aqueous with cosolvent or surfactant or cyclodextrin, thermodynamic from solid", "excerpt": "Amorphous Compound 1-(S) was formulated as described in the table below. Table 2 indicates the target concentration, final pH, solubility, and some observation of the resulting formulations."}, "[3]": {"assay": "Glass transition temperature by modulated DSC (MDSC)", "details": "ramp rate 2° C./min, 10-150° C.", "experimental": "The glass transition temperature (Tg) was determined to be 105.8° C. by modulated DSC (MDSC) using TA Instruments Differential Scanning calorimetry, Model Q2000 with autosampler. The MDSC instrument conditions were as follows: modulation temperature amplitude: ±1° C.; modulation: 60 second; ramp rate: 2° C./min; temperature range: 10-150° C.; Tzero aluminum sample pan and lid; and nitrogen gas flow at 50 mL/min."}}, "data": [{"molecule": "Cc1noc(C)c1-c1ccc2[nH]c(=O)n3c2c1OC[C@@H]3c1ccccn1", "note": "[Amorphous Compound 1-(S), (4S)-7-(3,5-dimethylisoxazol-4-yl)-4-pyridin-2-yl-4,5-dihydroimidazo[1,5,4-de][1,4]benzoxazin-2(1H)-one]", "values": [{"measurement": "Solid Form (XRPD)", "setting": "[1]; 40° C./75% RH, 0 weeks", "result": "Amorphous"}, {"measurement": "Purity 220 nm", "setting": "[1]; 40° C./75% RH, 0 weeks", "result": 98.22, "unit": "%"}, {"measurement": "Purity 254 nm", "setting": "[1]; 40° C./75% RH, 0 weeks", "result": 97.10, "unit": "%"}, {"measurement": "Water content", "setting": "[1]; 40° C./75% RH, 0 weeks", "result": 1.67, "unit": "%"}, {"measurement": "Purity 220 nm", "setting": "[1]; 40° C./75% RH, 1 week", "result": 98.22, "unit": "%"}, {"measurement": "Purity 254 nm", "setting": "[1]; 40° C./75% RH, 1 week", "result": 97.10, "unit": "%"}, {"measurement": "Water content", "setting": "[1]; 40° C./75% RH, 1 week", "result": 3.39, "unit": "%"}, {"measurement": "Solid Form (XRPD)", "setting": "[1]; 40° C./75% RH, 2 weeks", "result": "Amorphous"}, {"measurement": "Purity 220 nm", "setting": "[1]; 40° C./75% RH, 2 weeks", "result": 98.18, "unit": "%"}, {"measurement": "Purity 254 nm", "setting": "[1]; 40° C./75% RH, 2 weeks", "result": 97.10, "unit": "%"}, {"measurement": "Water content", "setting": "[1]; 40° C./75% RH, 2 weeks", "result": 2.64, "unit": "%"}, {"measurement": "Solid Form (XRPD)", "setting": "[1]; 50° C., 0 weeks", "result": "Amorphous"}, {"measurement": "Purity 220 nm", "setting": "[1]; 50° C., 0 weeks", "result": 98.22, "unit": "%"}, {"measurement": "Purity 254 nm", "setting": "[1]; 50° C., 0 weeks", "result": 97.10, "unit": "%"}, {"measurement": "Water content", "setting": "[1]; 50° C., 0 weeks", "result": 1.67, "unit": "%"}, {"measurement": "Purity 220 nm", "setting": "[1]; 50° C., 1 week", "result": 98.12, "unit": "%"}, {"measurement": "Purity 254 nm", "setting": "[1]; 50° C., 1 week", "result": 97.11, "unit": "%"}, {"measurement": "Water content", "setting": "[1]; 50° C., 1 week", "result": 0.69, "unit": "%"}, {"measurement": "Solid Form (XRPD)", "setting": "[1]; 50° C., 2 weeks", "result": "Amorphous"}, {"measurement": "Purity 220 nm", "setting": "[1]; 50° C., 2 weeks", "result": 98.23, "unit": "%"}, {"measurement": "Purity 254 nm", "setting": "[1]; 50° C., 2 weeks", "result": 97.11, "unit": "%"}, {"measurement": "Water content", "setting": "[1]; 50° C., 2 weeks", "result": 0.43, "unit": "%"}, {"measurement": "physical stability", "setting": "[1]; elevated temperature and humidity", "result": "physically stable"}, {"measurement": "Observations", "setting": "[2]; 0.5% MC in 50 mM citrate, pH 3.0, target concentration 0.5 mg/mL", "result": "solution"}, {"measurement": "Observations", "setting": "[2]; 0.5% MC in 50 mM citrate, pH 3.0, target concentration 2.5 mg/mL", "result": "suspension"}, {"measurement": "Observations", "setting": "[2]; 0.5% MC in water, target concentration 0.5 mg/mL", "result": "solution"}, {"measurement": "Observations", "setting": "[2]; 0.5% MC in water, target concentration 2.5 mg/mL", "result": "suspension"}, {"measurement": "Observations", "setting": "[2]; 10% TPGS in 50 mM citrate, pH 3.0, target concentration 2.5 mg/mL", "result": "solution"}, {"measurement": "solubility", "setting": "[2]; 0.5% MC in 50 mM citrate, pH 3.0, target concentration 0.5 mg/mL, final pH 3.00", "result": "> 500", "unit": "µg/mL"}, {"measurement": "solubility", "setting": "[2]; 0.5% MC in 50 mM citrate, pH 3.0, target concentration 2.5 mg/mL, final pH 3.03", "result": 1150, "unit": "µg/mL"}, {"measurement": "solubility", "setting": "[2]; 0.5% MC in water, target concentration 0.5 mg/mL, final pH 6.76", "result": "> 500", "unit": "µg/mL"}, {"measurement": "solubility", "setting": "[2]; 0.5% MC in water, target concentration 2.5 mg/mL, final pH 7.87", "result": 842, "unit": "µg/mL"}, {"measurement": "solubility", "setting": "[2]; 10% TPGS in 50 mM citrate, pH 3.0, target concentration 2.5 mg/mL, final pH 3.07", "result": "> 2500", "unit": "µg/mL"}, {"measurement": "glass transition temperature (Tg)", "setting": "[3]", "result": 105.8, "unit": "°C"}]}]}
